Results: US9102636B2, “Analgesic compounds, compositions, and uses thereof” (Galleon Pharmaceuticals, Inc., priority 2010, dated 2015)
“And” between values parts separate entries of the source, which are not always exact repeats. Equal values may be shown once. “Also recorded” adds a separate entry of the source.

Columns and labels:
[1] = tested on: spinal nerve ligation induced tactile allodynia; assay: Spinal nerve ligation (SNL, Chung model) induced tactile allodynia (von Frey filaments); type: in vivo, rat; settings: for Paw threshold / Paw withdrawal threshold: individual animals; for Paw withdrawal threshold: non-fasted
FCA induced edema = FCA induced edema (paw volume); type: in vivo, rat
Procedure: Compound 2 was evaluated in the rat Freund's complete adjuvant (FCA) model of inflammatory pain. The rat Freund's complete adjuvant (FCA) intraplantar model of inflammatory pain produces behaviors similar to those observed in patients and has been widely used to assess novel pharmacological treatments (Lam et al., 2008, J Ethnopharmacol. 120:44-50). The positive control was celecoxib (TRC, Montreal), and the negative control was vehicle (0.5% methyl cellulose, in phosphate buffered saline). […] The Hargreaves apparatus was obtained from Ugo Basile, Italy. The Freund's complete adjuvant was obtained from Sigma, St. Louis, and the electronic von frey was obtained from Stoelting, Ill. For this assay, paw withdrawal latency to a thermal stimulus was assessed using a radiant heat source (Ugo Basile, Italy) aimed at the plantar surface of the left hind paw (Hargreaves test; […] Paw withdrawal thresholds to a non-noxious tactile stimulus was assessed using an electronic von Frey apparatus that presented an increasing mechanical force to the plantar surface of the hind paw. Paw volume was measured by displacement of water and assuming a tissue density equal to that of water. […] Celecoxib (30 mg/kg p.o.) served as the positive control. […] After induction of anesthesia, the injection site was prepared in a sterile manner and 100 μl of a 50% suspension of FCA injected. After injection, animals were weighed and allowed to recover before being returned to their home cages. Statistical significance was determined on untransformed data using a two-way analysis of variance (Graphpad Prism, NC). Significant main effects were analyzed further by subsequent Bonferronni post-hoc test. The level of significance was set at p<0.05. Data are shown as mean±S.E.M. (with an asterisk to denote significance as compared to vehicle treated controls).

PC12 cells = assay: Inhibition of peroxynitrite (SIN-1) mediated cytotoxicity, ATPlite; type: cell-based; settings: Rattus norvegicus, PC-12, SIN-1 overnight, average of two plates
Description: ATPlite is an Adenosine TriPhosphate monitoring system based on firefly luciferase. ATP monitoring was used as a measure of PC12 cell viability, as it is present in all metabolically active cells and its concentration very rapidly declines as cells undergo necrosis and apoptosis. ATPlite is based upon the production of light given off during the reaction of ATP & D-Luciferin in the presence of Luciferase. The emitted light is proportional to the ATP concentration. Compounds of the invention were assessed for their ability to inhibit SIN-1 induced cell toxicity. Inhibitory concentrations, IC50 values, were calculated by testing compounds of the invention at various concentrations and averaging the IC50 of two plates.
All cell work was carried out under the cell culture hood in a sterile environment. […] The cells were counted in the 4 large corner quadrants of the hemacytometer under the inverted microscope at 10× and the average of the 4 quadrants was calculated. Blue cells were not counted as these cells represented non-viable cells. The number of cells present in 1 mL of media was determined using the following equation: cells/mL=(# cells counted/# squares counted)×10^4×dilution factor. […]
On Day 3, 10.25 ml of ATPlite buffer was added to 1 vial of lyophilized substrate solution (ATPlite 1 step luminescence ATP detection Assay system (Perkin Elmer, #6016731)). […]

Compound: CC1(C)SC(Nc2ccccc2O)=N[C@@H]1C(=O)O [Compound 2, (R)-2-(2-hydroxyphenylamino)-thiazoline-5,5-dimethyl-4-carboxylic acid]
- Paw threshold ([1]; FIG. 25, compound 2 30 mg/kg p.o. once on the day of surgery, 1 wk, 30 mg/kg): 1.85 g and 1.18 g and 2.81 g and 4.47 g and 6.4 g and 2.2 g and 15 g and 4.25 g
- Paw threshold ([1]; FIG. 25, compound 2 30 mg/kg p.o. once on the day of surgery, 2 wks, 30 mg/kg): 1.65 g and 2.81 g and 2 g (2×) and 3.73 g and 0.99 g and 5.56 g and 5.04 g
- Paw threshold ([1]; FIG. 25, compound 2 30 mg/kg p.o. once on the day of surgery, Pre-Sx): 15 g
- Paw threshold ([1]; FIG. 26, compound 2 30 mg/kg p.o. QD on days 1-5 post-surgery, 1 wk, 30 mg/kg): 15 g (4×) and 11.41 g and 3.13 g and 1.18 g and 6.66 g
- Paw threshold ([1]; FIG. 26, compound 2 30 mg/kg p.o. QD on days 1-5 post-surgery, 2 wks, 30 mg/kg): 13.96 g (2×) and 4.25 g and 5.37 g and 11.69 g and 2.8 g and 8.44 g and 7.94 g
- Paw threshold ([1]; FIG. 26, compound 2 30 mg/kg p.o. QD on days 1-5 post-surgery, 3 wks, 30 mg/kg): 7.53 g and 6.64 g and 4.98 g and 2.2 g and 4.4 g and 2.38 g and 10.31 g and 15 g
- Paw threshold ([1]; FIG. 26, compound 2 30 mg/kg p.o. QD on days 1-5 post-surgery, Pre-Sx, 30 mg/kg): 15 g (7×) and 11.69 g
- Paw withdrawal threshold ([1]; compound 2 10 mg/kg p.o., 1 hr (D1), 10 mg/kg): 1.56 g and 4.98 g and 4.25 g (2×) and 15 g and 3.13 g and 2.81 g and 4.4 g
- Paw withdrawal threshold ([1]; compound 2 10 mg/kg p.o., 1 hr (D2), 10 mg/kg): 1.31 g and 1.85 g (3×) and 2.38 g and 2.64 g and 1.65 g and 1.4 g
- Paw withdrawal threshold ([1]; compound 2 10 mg/kg p.o., 1 hr (D3), 10 mg/kg): 0.44 g and 3.67 g and 1.85 g and 7.94 g and 3.33 g and 2 g and 2.81 g and 4.4 g
- Paw withdrawal threshold ([1]; compound 2 10 mg/kg p.o., 3 hrs (D1), 10 mg/kg): 2 g and 7.94 g and 1.4 g and 15 g and 2.81 g and 2.64 g and 1.85 g and 3.57 g
- Paw withdrawal threshold ([1]; compound 2 10 mg/kg p.o., 3 hrs (D2), 10 mg/kg): 0.4 g and 1.56 g (2×) and 11.69 g and 2.81 g and 2.37 g and 2 g and 3.71 g
- Paw withdrawal threshold ([1]; compound 2 10 mg/kg p.o., 3 hrs (D3), 10 mg/kg): 0.99 g and 2.37 g and 1.56 g and 2.38 g and 2.81 g (2×) and 0.65 g and 3.33 g
- Paw withdrawal threshold ([1]; compound 2 10 mg/kg p.o., Pre-Drug, 10 mg/kg): 2.2 g and 3.13 g (2×) and 4.25 g and 3.58 g and 3.73 g and 4.4 g and 2.64 g
- Paw withdrawal threshold ([1]; compound 2 10 mg/kg p.o., Pre-Sx, 10 mg/kg): 11.69 g and 15 g (7×)
- Paw withdrawal threshold ([1]; compound 2 50 mg/kg p.o., 1 hr (D1), 50 mg/kg): 2.81 g (2×) and 6.64 g and 5.56 g (2×) and 3.67 g and 4.23 g and 4.98 g
- Paw withdrawal threshold ([1]; compound 2 50 mg/kg p.o., 1 hr (D2), 50 mg/kg): 1.19 g and 2.81 g and 3.12 g and 7.94 g
- Paw withdrawal threshold ([1]; compound 2 50 mg/kg p.o., 3 hrs (D1), 50 mg/kg): 1.18 g and 3.13 g (2×) and 3.33 g and 6.66 g (2×) and 6.64 g and 4.7 g
- Paw withdrawal threshold ([1]; compound 2 50 mg/kg p.o., Pre-Drug, 50 mg/kg): 2.81 g (2×) and 3.33 g and 3.73 g and 2.2 g and 5.04 g and 4.25 g and 3.58 g
- Paw withdrawal threshold ([1]; compound 2 50 mg/kg p.o., Pre-Sx): 15 g
- development of SNL tactile allodynia, single administration ([1]; rat, 30 mg/kg p.o. immediately following surgery, assessed 1 and 2 weeks later, FIG. 25): a significant difference between treated animals and vehicle controls was not noted
- development of SNL tactile allodynia, repeated administration ([1]; rat, 30 mg/kg p.o. once a day for 5 days starting on day of surgery, 1, 2 and 3 weeks post surgery, FIG. 26): significant reduction in tactile allodynia
- reversal of SNL tactile allodynia, fasted animals, subsequent administrations ([1]; rat, 50 mg/kg p.o., 48 hrs later, FIG. 24): failed to produce a statistically significant effect
- reversal of SNL tactile allodynia, non-fasted animals ([1]; rat, 10 and 50 mg/kg p.o., any time point after any of three administrations, FIG. 23): did not produce a statistically significant difference from vehicle treated animals
- Paw volume (FCA induced edema; 24 hrs post, compound 2 10 mg/kg p.o. preemptive, FIG. 20A, 10 mg/kg): 2.7 mL and 2.6 mL and 3.1 mL
- Paw volume (FCA induced edema; 24 hrs post, compound 2 30 mg/kg p.o. preemptive, FIG. 20A, 30 mg/kg): 2.1 mL and 2.9 mL and 3 mL
- Paw volume (FCA induced edema; 48 hrs post, compound 2 10 mg/kg p.o. preemptive, FIG. 20A, 10 mg/kg): 2.6 mL and 2.5 mL and 2.9 mL and 3.2 mL
- Paw volume (FCA induced edema; 48 hrs post, compound 2 30 mg/kg p.o. preemptive, FIG. 20A, 30 mg/kg): 2.5 mL and 2.8 mL and 3.1 mL and 2.7 mL and 2.9 mL
- Paw volume (FCA induced edema; FCA/Compound 2, 10 mg/kg p.o., dosed 24 hours post-FCA, Pre-FCA (baseline), individual animals): 1.7 mL (2×) and 1.6 mL (2×) and 1.8 mL (3×) and 1.5 mL
- Paw volume (FCA induced edema; FCA/Compound 2, 10 mg/kg p.o., 1 hr (D2), individual animals): 2.7 mL (3×) and 2.9 mL and 2.5 mL and 2.8 mL and 2.3 mL and 3.2 mL
- Paw volume (FCA induced edema; FCA/Compound 2, 10 mg/kg p.o., 1 hr, individual animals): 2.9 mL (2×) and 3.1 mL (2×) and 2.7 mL (2×) and 2.8 mL and 3 mL
- Paw volume (FCA induced edema; FCA/Compound 2, 10 mg/kg p.o., 3 hrs (D2), individual animals): 2.7 mL (2×) and 3 mL and 2.6 mL and 2.5 mL and 2.8 mL and 2.4 mL and 3.2 mL
- Paw volume (FCA induced edema; FCA/Compound 2, 10 mg/kg p.o., 3 hrs, individual animals): 2.9 mL (4×) and 3.1 mL and 2.7 mL and 2.4 mL and 3.2 mL
- Paw volume (FCA induced edema; FCA/Compound 2, 10 mg/kg p.o., Pre-Drug (D2), individual animals): 2.7 mL (2×) and 3 mL and 2.6 mL (2×) and 2.8 mL and 2.4 mL and 3.2 mL
- Paw volume (FCA induced edema; FCA/Compound 2, 10 mg/kg p.o., Pre-Drug, individual animals): 3.1 mL (2×) and 2.8 mL (2×) and 2.9 mL and 3 mL and 2.7 mL and 3.4 mL
- Paw volume (FCA induced edema; FCA/Compound 2, 30 mg/kg p.o., dosed 24 hours post-FCA, Pre-FCA (baseline), individual animals): 1.7 mL (4×) and 1.8 mL (2×) and 1.5 mL and 1.9 mL
- Paw volume (FCA induced edema; FCA/Compound 2, 30 mg/kg p.o., 1 hr, individual animals): 2.6 mL
- Paw volume (FCA induced edema; FCA/Compound 2, 30 mg/kg p.o., Pre-Drug, individual animals): 2.8 mL (2×) and 3 mL (2×) and 2.9 mL and 3.2 mL and 2.6 mL and 3.4 mL
- Paw volume (FCA induced edema; Pre-FCA, compound 2 10 mg/kg p.o. preemptive group, individual rats, FIG. 20A, 10 mg/kg): 1.7 mL (2×) and 1.6 mL and 1.8 mL (2×) and 1.9 mL
- Paw volume (FCA induced edema; Pre-FCA, compound 2 30 mg/kg p.o. preemptive group, individual rats, FIG. 20A, 30 mg/kg): 1.6 mL and 1.7 mL (2×) and 1.9 mL and 1.8 mL (2×)
- FCA-induced edema (finding in words) (FCA induced edema; rat, 10 and 30 mg/kg p.o., preemptive and curative (24 hours post-FCA)): did not have a statistically significant effect; also recorded: did not affect edema
- IC50 (PC12 cells): 3.7 µM
